Assay [1] has as its target T1, human neutrophil elastase (HNE) (Homo sapiens, UniProt P08246).
T1 construct: purchased Sigma
T1 sequence (P08246 30-267): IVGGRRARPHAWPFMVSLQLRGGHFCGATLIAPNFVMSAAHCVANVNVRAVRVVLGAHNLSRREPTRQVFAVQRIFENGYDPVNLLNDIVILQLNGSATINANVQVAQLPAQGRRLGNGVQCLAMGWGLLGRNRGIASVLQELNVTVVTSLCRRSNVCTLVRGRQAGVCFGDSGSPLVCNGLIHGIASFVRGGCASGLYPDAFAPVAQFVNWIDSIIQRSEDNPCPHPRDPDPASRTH
Description: Specificity assay, human neutrophil elastase. In kind it is biochemical. The settings on record: 2 h enzyme-inhibitor pre-incubation; read-out: HLE activity (IC50) in the specificity assay. Here is the method:
The specificities of compounds of the present disclosure were determined against a variety of serine proteases: human neutrophil elastase (HNE), porcine pancreatic elastase (PPE) and human pancreatic chymotrypsin and one cysteine protease: human liver cathepsin B. In all cases a 96-well plate format protocol using colorimetric p-nitroaniline (pNA) substrate specific for each enzyme was used as described previously (PCT Patent Application No. WO 00/09543) with some modifications to the serine protease assays. All enzymes were purchased from Sigma while the substrates were from Bachem.
Each assay included a 2 h enzyme-inhibitor pre-incubation at room temperature followed by addition of substrate and hydrolysis to ˜30% conversion as measured on a Spectramax Pro microplate reader. Compound concentrations varied from 100 to 0.4 μM depending on their potency.
50 mM Tris(hydroxymethyl)aminomethane hydrochloride (Tris-HCl) pH 8, 0.5 M Sodium Sulfate (Na2SO4), 50 mM NaCl, 0.1 mM EDTA, 3% DMSO, 0.01% Tween-20 with:
133 μM succ-AAA-pNA and 20 nM HNE or 8 nM PPE; 100 μM succ-AAPF-pNA and […] Chymotrypsin.
The percentage of inhibition was calculated using the formula: [1−((UVinh−UVblank)/(UVctl−UVblank))]×100
A non-linear curve fit was applied to the inhibition-concentration data, and the 50% effective concentration (IC50) was calculated by the use of Excel Xl-fit software.

Assay [2] addresses T2, HCV NS3/4A protease complex, J4L6S strain (Hepatitis C virus genotype 1b, UniProt O92972, C1454S/C1711G).
T2 construct: DNA encoding the recombinant HCV NS3/4A protease complex (amino acids 1027 to 1711) for these strains; His tag (inferred from pET21b vector and Ni-NTA purification); made in house; host or cells: Escherichia coli BL21 (DE3), pET21b
In words: FRET peptide assay to monitor HCV NS3/4A proteolytic activity (J4L6S strain). In kind it is biochemical, HCV genotype 1b. From the text:
(§1) HCV NS3 protease complexes, derived from the BMS strain, H77 strain or J4L6S strain, were generated, as described below. These purified recombinant proteins were generated for use in a homogeneous assay (see below) to provide an indication of how effective compounds of the present disclosure would be in inhibiting HCV NS3 proteolytic activity.
(§2) Serum from an HCV-infected patient was obtained from Dr. T. Wright, San Francisco Hospital. An engineered full-length cDNA (compliment deoxyribonucleic acid) template of the HCV genome (BMS strain) was constructed from DNA fragments obtained by reverse transcription-PCR(RT-PCR) of serum RNA (ribonucleic acid) and using primers selected on the basis of homology between other genotype 1a strains. From the determination of the entire genome sequence, a genotype 1a was assigned to the HCV isolate according to the classification of Simmonds et al. (See P Simmonds, K A Rose, S Graham, S W Chan, F McOmish, B C Dow, E A Follett, P L Yap and H Marsden, J. Clin. Microbiol., 31(6), 1493-1503 (1993)). […]

Assay [3] concerns the target T3, HCV NS3/4A protease complex, H77 strain (Hepatitis C virus genotype 1a, UniProt P27958, C1454S/C1711G).
T3 construct: DNA encoding the recombinant HCV NS3/4A protease complex (amino acids 1027 to 1711) for these strains; His tag (inferred from pET21b vector and Ni-NTA purification); made in house; host or cells: Escherichia coli BL21 (DE3), pET21b
Description: FRET peptide assay to monitor HCV NS3/4A proteolytic activity (H77 strain). The class given is biochemical, HCV genotype 1a.
Description: as §1, §2

T3 sequence (P27958 1027-1711 C1454S/C1711G, one chain of several): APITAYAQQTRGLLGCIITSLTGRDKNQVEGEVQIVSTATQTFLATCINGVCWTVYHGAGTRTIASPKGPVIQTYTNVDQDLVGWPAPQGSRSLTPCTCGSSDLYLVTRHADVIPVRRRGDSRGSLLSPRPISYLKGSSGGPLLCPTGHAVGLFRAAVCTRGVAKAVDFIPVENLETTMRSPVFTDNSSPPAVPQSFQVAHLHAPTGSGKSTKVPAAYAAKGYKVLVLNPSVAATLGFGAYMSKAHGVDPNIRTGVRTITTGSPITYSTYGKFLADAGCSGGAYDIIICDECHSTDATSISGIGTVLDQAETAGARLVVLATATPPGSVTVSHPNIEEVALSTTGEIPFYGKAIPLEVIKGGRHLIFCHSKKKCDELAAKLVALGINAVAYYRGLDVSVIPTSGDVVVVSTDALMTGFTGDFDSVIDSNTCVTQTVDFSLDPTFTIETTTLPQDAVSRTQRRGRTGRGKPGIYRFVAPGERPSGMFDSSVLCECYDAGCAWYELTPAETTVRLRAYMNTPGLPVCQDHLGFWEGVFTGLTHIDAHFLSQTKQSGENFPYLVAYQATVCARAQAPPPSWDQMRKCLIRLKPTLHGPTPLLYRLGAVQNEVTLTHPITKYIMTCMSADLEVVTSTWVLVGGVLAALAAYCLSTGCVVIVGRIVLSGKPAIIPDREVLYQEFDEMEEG
T2 sequence (O92972 1027-1711 C1454S/C1711G, one chain of several): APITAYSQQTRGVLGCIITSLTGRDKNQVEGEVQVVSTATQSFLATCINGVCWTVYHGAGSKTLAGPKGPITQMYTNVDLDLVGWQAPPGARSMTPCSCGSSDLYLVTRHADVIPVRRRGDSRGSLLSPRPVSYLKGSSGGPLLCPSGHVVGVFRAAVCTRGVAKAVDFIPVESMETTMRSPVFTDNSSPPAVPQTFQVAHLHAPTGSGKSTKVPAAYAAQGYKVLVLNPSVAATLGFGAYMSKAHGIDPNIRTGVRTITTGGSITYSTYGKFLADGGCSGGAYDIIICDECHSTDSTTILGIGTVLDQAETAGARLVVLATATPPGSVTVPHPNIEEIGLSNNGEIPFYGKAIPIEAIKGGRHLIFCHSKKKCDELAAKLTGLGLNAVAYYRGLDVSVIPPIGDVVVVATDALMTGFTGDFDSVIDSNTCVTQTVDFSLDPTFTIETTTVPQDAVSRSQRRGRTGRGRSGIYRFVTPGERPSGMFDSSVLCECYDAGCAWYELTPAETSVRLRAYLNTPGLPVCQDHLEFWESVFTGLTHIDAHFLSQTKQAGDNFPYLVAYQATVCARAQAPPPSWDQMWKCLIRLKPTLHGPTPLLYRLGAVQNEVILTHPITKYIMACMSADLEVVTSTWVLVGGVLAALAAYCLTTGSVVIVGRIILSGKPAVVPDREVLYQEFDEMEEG

Regarding `C=C[C@@H]1C[C@]1(NC(=O)[C@@H]1C[C@@H](OC(=O)c2ccccc2)CN1C(=O)[C@@H](NC(=O)OC(C)(C)C)C(C)(C)C)C(=O)NS(=O)(=O)C1CC1` [Compound 1], the IC50 – broadly, the concentration at which inhibition is half-maximal – in assay [1] was greater than 200000 nM; in assay [2] it was 2.5 nM; in assay [3], 6 nM.

The values are drawn from patent US7935670B2, “Hepatitis C virus inhibitors” (Bristol-Myers Squibb Company, priority 2006, dated 2011).
